In patent publication US10526327B2, “Histone demethylase inhibitors” (CELGENE QUANTICEL RESEARCH, INC., priority 2013, dated 2020):

How the values were obtained:
Jarid1B = target: T1, Jarid1B (Homo sapiens, UniProt Q9UGL1); assay: Jarid1B in vitro enzyme inhibition assay (TR-FRET); type: biochemical
T1 construct: purchased BPS Bioscience or custom made by MolecularThroughput 50121
T1 sequence (Q9UGL1 2-751): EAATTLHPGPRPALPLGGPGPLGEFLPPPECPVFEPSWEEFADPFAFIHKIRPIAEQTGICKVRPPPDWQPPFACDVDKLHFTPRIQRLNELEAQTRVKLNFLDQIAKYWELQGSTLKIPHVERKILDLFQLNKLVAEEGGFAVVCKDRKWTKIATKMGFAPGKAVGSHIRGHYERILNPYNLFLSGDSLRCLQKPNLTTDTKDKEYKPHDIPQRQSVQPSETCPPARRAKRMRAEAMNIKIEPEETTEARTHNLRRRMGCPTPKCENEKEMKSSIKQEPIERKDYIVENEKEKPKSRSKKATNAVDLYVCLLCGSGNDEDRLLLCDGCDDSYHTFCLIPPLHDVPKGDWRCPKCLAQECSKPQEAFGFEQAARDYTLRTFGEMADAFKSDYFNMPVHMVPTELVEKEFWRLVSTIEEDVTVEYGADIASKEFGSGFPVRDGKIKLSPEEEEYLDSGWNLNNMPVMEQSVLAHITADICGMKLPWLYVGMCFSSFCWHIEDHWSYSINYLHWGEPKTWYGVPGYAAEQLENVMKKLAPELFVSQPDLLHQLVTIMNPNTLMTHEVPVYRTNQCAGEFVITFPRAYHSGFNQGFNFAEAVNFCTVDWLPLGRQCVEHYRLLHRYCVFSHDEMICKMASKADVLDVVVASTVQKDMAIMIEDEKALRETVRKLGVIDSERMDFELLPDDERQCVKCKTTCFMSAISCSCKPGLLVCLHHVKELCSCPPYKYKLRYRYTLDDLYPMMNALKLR
How it was run: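 Jarid1B (AA 2-751, baculovirus-expressed) at 0.8 nM with 300 nM biotin-H3K4me3 peptide and 2 μM α-ketoglutarate in HEPES pH 7.3 with ascorbate and Fe(II), 30 min at room temperature. Stopped with EDTA; H3K4me1-2 product detected by TR-FRET (665/615 ratio) and IC50 fitted from 11-point dilutions.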

JMJD2C = target: T2, JMJD2C (Homo sapiens, UniProt Q9H3R0); assay: JMJD2C in vitro enzyme inhibition assay (TR-FRET); type: biochemical
T2 construct: purchased BPS Bioscience 50105
T2 sequence (Q9H3R0 2-372): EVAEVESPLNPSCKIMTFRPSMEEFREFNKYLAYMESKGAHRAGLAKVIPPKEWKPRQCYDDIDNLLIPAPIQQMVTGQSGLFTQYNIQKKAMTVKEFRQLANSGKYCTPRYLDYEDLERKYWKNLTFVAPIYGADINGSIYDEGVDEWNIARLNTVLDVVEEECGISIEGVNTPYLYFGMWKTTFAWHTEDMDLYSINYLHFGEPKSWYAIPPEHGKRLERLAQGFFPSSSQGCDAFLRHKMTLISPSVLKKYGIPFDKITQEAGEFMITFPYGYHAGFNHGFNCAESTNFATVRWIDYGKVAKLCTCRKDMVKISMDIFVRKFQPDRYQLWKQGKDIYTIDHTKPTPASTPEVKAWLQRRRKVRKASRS
How it was run: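 Baculovirus-expressed human JMJD2C (AA 2-372) at 0.3 nM demethylated 300 nM biotin-H3K9me3 peptide with 2 μM alpha-ketoglutarate in HEPES pH 7.3 containing ascorbate and Fe(II), 30 min at room temperature. EDTA-stopped product was read by TR-FRET with Eu-anti-H3K9me2 and streptavidin-APC; 665/615 ratios from 11-point dilutions gave IC50.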

| Compound | IC50 (Jarid1B) [µM] | IC50 (JMJD2C) [µM] |
| --- | --- | --- |
| O=C(CO)N1CC[C@H](n2cc(Oc3nc(O)c4ccncc4n3)cn2)C1 [Example 155, 2-hydroxy-1-[(3S)-3-[4-({4-hydroxypyrido[3,4-d]pyrimidin-2-yl}oxy)-1H-pyrazol-1-yl]pyrrolidin-1-yl]ethan-1-one] | ≤ 0.1 | ≤ 0.1 |
| O=C(C1CC1)N1CCC[C@@H](n2cc(Oc3nc(O)c4ccncc4n3)cn2)C1 [Example 156, 2-({1-[(3R)-1-cyclopropanecarbonylpiperidin-3-yl]-1H-pyrazol-4-yl}oxy)pyrido[3,4-d]pyrimidin-4-ol] | ≤ 0.1 | ≤ 0.1 |
| O=C(c1ccccc1)N1CCC[C@@H](n2cc(Oc3nc(O)c4ccncc4n3)cn2)C1 [Example 157, 2-({1-[(3R)-1-benzoylpiperidin-3-yl]-1H-pyrazol-4-yl}oxy)pyrido[3,4-d]pyrimidin-4-ol] | ≤ 0.1 | ≤ 0.1 |
| Oc1nc(Oc2cnn([C@@H]3CCCN(Cc4ccccc4)C3)c2)nc2cnccc12 [Example 158, 2-({1-[(3R)-1-benzylpiperidin-3-yl]-1H-pyrazol-4-yl}oxy)pyrido[3,4-d]pyrimidin-4-ol] | ≤ 0.1 | ≤ 0.1 |
| Oc1nc(Oc2cnn([C@@H]3CCCN(c4ccc(F)cc4)C3)c2)nc2cnccc12 [Example 159, 2-({1-[(3R)-1-(4-fluorophenyl)piperidin-3-yl]-1H-pyrazol-4-yl}oxy)pyrido[3,4-d]pyrimidin-4-ol] | ≤ 0.1 | ≤ 0.1 |
| Oc1nc(Oc2cnn([C@H]3CCCNC3)c2)nc2cnccc12 [Example 160, 2-({1-[(3S)-piperidin-3-yl]-1H-pyrazol-4-yl}oxy)pyrido[3,4-d]pyrimidin-4-ol] | ≤ 0.1 | ≤ 0.1 |
| CCS(=O)(=O)N1CCC[C@H](n2cc(Oc3nc(O)c4ccncc4n3)cn2)C1 [Example 161, 2-({1-[(3S)-1-(ethanesulfonyl)piperidin-3-yl]-1H-pyrazol-4-yl}oxy)pyrido[3,4-d]pyrimidin-4-ol] | ≤ 0.1 | ≤ 0.1 |
| O=S(=O)(C1CC1)N1CCC[C@H](n2cc(Oc3nc(O)c4ccncc4n3)cn2)C1 [Example 162, 2-({1-[(3S)-1-(cyclopropanesulfonyl)piperidin-3-yl]-1H-pyrazol-4-yl}oxy)pyrido[3,4-d]pyrimidin-4-ol] | ≤ 0.1 | ≤ 0.1 |
| O=S(=O)(c1ccccc1)N1CCC[C@H](n2cc(Oc3nc(O)c4ccncc4n3)cn2)C1 [Example 163, 2-({1-[(3S)-1-(benzenesulfonyl)piperidin-3-yl]-1H-pyrazol-4-yl}oxy)pyrido[3,4-d]pyrimidin-4-ol] | ≤ 0.1 | ≤ 0.1 |
| CC(=O)N1CCC[C@H](n2cc(Oc3nc(O)c4ccncc4n3)cn2)C1 [Example 164, 1-[(3S)-3-[4-({4-hydroxypyrido[3,4-d]pyrimidin-2-yl}oxy)-1H-pyrazol-1-yl]piperidin-1-yl]ethan-1-one] | ≤ 0.1 | ≤ 0.1 |
| O=C(C1CC1)N1CCC[C@H](n2cc(Oc3nc(O)c4ccncc4n3)cn2)C1 [Example 165, 2-({1-[(3S)-1-cyclopropanecarbonylpiperidin-3-yl]-1H-pyrazol-4-yl}oxy)pyrido[3,4-d]pyrimidin-4-ol] | ≤ 0.1 | ≤ 0.1 |
| N#CCC(=O)N1CCC[C@H](n2cc(Oc3nc(O)c4ccncc4n3)cn2)C1 [Example 166, 3-[(3S)-3-[4-({4-hydroxypyrido[3,4-d]pyrimidin-2-yl}oxy)-1H-pyrazol-1-yl]piperidin-1-yl]-3-oxopropanenitrile] | ≤ 0.1 | ≤ 0.1 |
| O=C(c1ccccc1)N1CCC[C@H](n2cc(Oc3nc(O)c4ccncc4n3)cn2)C1 [Example 167, 2-({1-[(3S)-1-benzoylpiperidin-3-yl]-1H-pyrazol-4-yl}oxy)pyrido[3,4-d]pyrimidin-4-ol] | ≤ 0.1 | ≤ 0.1 |
| Oc1nc(Oc2cnn([C@H]3CCCN(Cc4ccccc4)C3)c2)nc2cnccc12 [Example 168, 2-({1-[(3S)-1-benzylpiperidin-3-yl]-1H-pyrazol-4-yl}oxy)pyrido[3,4-d]pyrimidin-4-ol] | ≤ 0.1 | ≤ 0.1 |
